In patent US20230190616A1, “COMPOUNDS USEFUL FOR THE TREATMENT AND/OR CARE OF THE SKIN, HAIR, NAILS AND/OR MUCOUS MEMBRANES” (LUBRIZOL ADVANCED MATERIALS, INC., priority 2018, published 2023):

What was measured:
Format in all cases: cell-based
[1] = tested on: human neuroblastoma cell line (SH-SY5Y); assay: Inhibition of noradrenaline (NA) release from human neuroblastoma cells, ELISA
Source text: Inhibition of noradrenaline release from human neuroblastoma cells.
Release of neurotransmitters by exocytosis in neuromuscular junctions from peripheral neurons to skeletal muscle allows muscle contraction. Face muscles are subject to said contraction and facial muscle contraction is more frequent around eyes, mouth and forehead than elsewhere in the face. With age, continuous release of neurotransmitters into neuromuscular junctions and decrease of elasticity contribute to the increase of facial wrinkles and permanent expression lines. Compounds able to block or decrease exocytosis on neuromuscular junction sites are thus good candidates for the cosmetic treatment of unaesthetic wrinkles. In vitro induction of the neurotransmitter Noradrenaline (NA) release in a human neuroblastoma cell line (SH-SY5Y) is considered a direct and reliable method for exocytosis measurement. The aim of this study is to evaluate the efficacy of the peptides of the invention on the inhibition of neuronal exocytosis by means of measuring the levels of NA release in SH-SY5Y cells by Enzyme-linked Immunosorbent Assay (ELISA).
SH-SY5Y (ECACC) cells are seeded in 12-well plates at a density of 1×10^6 cells/well. After a 6-day culture, medium is removed from wells and cells are treated for 60 minutes with the peptides of the invention dissolved in Hank’s Balanced Salt Solution (HBSS, Life Technologies) at 1 and 2.5 mg/ml. Cells treated with HBSS alone are used as a basal control. To mobilize NA vesicles, supernatants are removed and 100 nM Tetradecanoylphorbol-13-acetate (TPA, Sigma) is dissolved in the presence of test items in HBSS or dissolved in HBSS alone in the case of the basal control. After this, solutions with TPA are removed and NA release is induced by the addition of 10 µM lonomycin (Epica) with 100 nM TPA dissolved in the presence of test items in HBSS or dissolved in HBSS alone in the case of the basal control. Afterwards, the medium in the wells, containing released NA, is collected and centrifuged. Supernatants obtained are used for quantification of NA by ELISA with noradrenalin ELISA kit (IBL International) following manufacturer’s instructions. In brief, direct sandwich ELISA is performed with a plate pre-coated with an anti-NA antibody. The color obtained after substrate addition is directly proportional to the amount of NA present in each condition tested. Absorbance is read in a microplate absorbance reader (Clariostar™, BMG) at 405 nm. The percentage of NA release for each condition is calculated respect to basal control.

[2] = tested on: Musclebind like protein 1 (MBNL1) in human skeletal muscle cells (hSkMc); assay: Quantification of Musclebind like protein 1 in human skeletal muscle cells by TR-FRET; details: 1 mg/ml; 48 hours
[3] = tested on: collagen type I in primary human dermal fibroblasts (HDFn); assay: Type I collagen synthesis on human dermal fibroblasts by ELISA; details: 0.5 µg/ml; for % Collagen induction: 48 hours
Source text: In vitro study of type I collagen synthesis on human dermal fibroblasts by Enzyme-Linked Immunosorbent Assay.
Collagen type I is the principal collagen of skin. This molecule, which is mainly produced by fibroblasts, is responsible for the strength and resiliency of this tissue. For this reason, in vitro quantification of collagen induction by cosmetic products on human dermal fibroblasts provides information about their potential anti-aging effects on the skin. Collagen induction by the peptides of the invention is evaluated with an Enzyme-Linked Immunosorbent Assay (ELISA). The aim of this study is to investigate the ability of a product to induce collagen type I synthesis in primary human dermal fibroblasts isolated from neonatal skin (HDFn).
HDFn (Cascade) are seeded at a density of 5×10^4 in 48-well plates. After 24-hour incubation, fresh medium with scalar dilutions of the test items at 0.5 µg/ml are added. Non-treated cells are used as basal control. The cells are treated for 48 hours. Then, the medium of the wells is collected and transferred into a 96-well plate. A standard calibration curve prepared with calf skin type I collagen (Sigma) is transferred into the plate as well. The plate is left overnight in order to coat type I collagen into its surface. After that, collagen I is detected with an anti-collagen type I antibody (Sigma). The primary antibody is then recognized by a secondary antibody IgG-HRP (molecular probes). 3,3,5,5-tetramethylbenzidine liquid substrate (TMB, Sigma) is added to measure the amount of secondary antibody attached. The color produced by this reaction is measured in a microtiter plate reader (Clariostar™, BMG) and type I collagen concentration is determined using a linear regression of the standard curve.

[4] = tested on: Musclebind like protein 1 (MBNL1) in human skeletal muscle cells (hSkMc); assay: Quantification of Musclebind like protein 1 in human skeletal muscle cells by TR-FRET; details: for % MBNL1 vs basal level / MBNL1 levels compared to the basal control and to Argireline (in words): 0.5 mg/ml; for % MBNL1 vs basal level: 48 hours
Description: In vitro quantification of Musclebind like protein 1 in human skeletal muscle cells by Time resolved fluorescence resonance energy transfer.
MBNL1 induction by the peptides of the invention is evaluated by a Time resolved fluorescence resonance energy transfer (TR-FRET) assay. The aim of this study is to investigate the capacity of peptide candidates to increase MBNL-1 in human skeletal muscle cells (hSkMc).
hSkMc (Innoprot) are seeded in 12-well plates at a density of 1.5×10^4 cells/well in Skeletal Muscle Cell Growth Medium (Promocell). After 72 hours incubation, medium is removed and replaced with Skeletal Muscle Cell Differentiation Medium (Promocell). 48 hours after beginning cell differentiation, fresh differentiation medium with 0.5 mg/ml of test items is added. Treatment is continued for 48 hours and non-treated cells are used as basal control. After 48 hours of treatment, cell medium is removed and cell lysis buffer is added to wells. Immediately, plates are kept at -80° C. in order to improve protein extraction during the defrosting process. After 72 hours, cells are lysed by shaking the plates in an orbital rotor at room temperature for 45 minutes. Next, cell lysates are collected and assayed to quantify the level of MBNL-1 protein and total protein concentration.
MBNL-1 protein levels measurement is performed with Human MBNL1 Assay Kit (Cisbio) according to the manufacturer’s protocol. Briefly, the kit is used to perform a TR-FRET for MBNL1 quantification. The protein is detected with the antibodies provided in the kit and quantified by a fluorescence measurement. The quantification is carried out by using a microplate reader (ClarioStar™™™, BMG) set to 665 nm and 620 nm.
Total protein concentration of cell lysate is determined by using Pierce BCA Protein Assay Kit (Thermo Scientific) according to manufacturer’s protocol. In brief, after adding Working Reagent to the samples and the standards, the samples are incubated. Afterwards, color change is measured with an absorbance microplate reader (Clariostar™, BMG) at 562 nm. The total protein amount is used to normalize the level of MBNL1 protein concentration obtained by the TR-FRET test in the samples.

[5] = hSkMc, normalized to total protein
[6] = 1 mg/ml, SH-SY5Y, respect to basal control, mean of 3 assays
[7] = 2.5 mg/ml, SH-SY5Y, respect to basal control, mean of 3 assays
[8] = HDFn, versus non-treated cells, mean of 5 assays

| Substance | % MBNL1 vs basal level [4, 5] [%] | MBNL1 levels compared to the basal control and to Argireline (in words) ([4]; hSkMc) | also measured |
| --- | --- | --- | --- |
| ARGIRELINE [Ac—Glu—Glu—Met—Gln—Arg—Arg, reference compound] |  |  | % Released NA ([1]; 1 mg/ml): 79.6%; % Released NA ([1]; 2.5 mg/ml): 63.5%; % MBNL1 vs basal level [2]: 86.9%; % Collagen induction [3]: 109.8%; Effect on MBNL1 (in words) [4]: no effect; % MBNL1 vs basal level [4]: 96.6% |
| Ac-L-Ala-L-Arg-L-Arg-L-Gln-D-Met-L-Glu-L-Glu-L-Ala-NH2 [PEP-42] | 144.4 | increase MBNL1 levels |  |
| Ac-L-Arg-L-Arg-D-Gln-D-Met-L-Glu-L-Glu-NH2 [PEP-24] | 120.9 | increase MBNL1 levels | % Released NA [1, 6]: 65.8%; % Released NA [1, 7]: 52.3%; % Collagen induction [3, 8]: 104.7% |
| Ac-L-Arg-L-Arg-L-Asp-D-Met-L-Glu-L-Glu-NH2 [PEP-41] | 151.3 | increase MBNL1 levels |  |
| Ac-L-Arg-L-Arg-L-Gln-D-Leu-L-Glu-L-Glu-NH2 [PEP-37] | 140.3 | increase MBNL1 levels |  |
| Ac-L-Arg-L-Arg-L-Gln-D-Met-L-Asp-L-Glu-NH2 [PEP-30] | 160.0 | increase MBNL1 levels |  |
| Ac-L-Arg-L-Arg-L-Gln-D-Met-L-Glu-L-Gln-NH2 [PEP-31] | 161.3 | increase MBNL1 levels |  |
| Ac-L-Arg-L-Arg-L-Gln-D-Met-L-Glu-L-Glu-OH [PEP-26] | 109.6 | increase MBNL1 levels |  |
| Ac-L-Arg-L-Arg-L-Gln-D-Met-L-Glu-NH2 [PEP-44] | 137.8 | increase MBNL1 levels |  |
| Ac-L-Arg-L-Arg-L-Gln-L-Met-L-Glu-L-Glu-NH2 [PEP-21] | 91.9 |  | % Released NA [1, 6]: 78.9%; % Released NA [1, 7]: 43.8%; % Collagen induction [3, 8]: 119.3%; Efficacy in increasing collagen type I compared with Argireline (in words) ([3]; HDFn): even higher |
| Ac-L-Arg-L-Gln-D-Met-L-Glu-L-Glu-NH2 [PEP-43] | 112.4 | increase MBNL1 levels |  |
| Ac-L-Arg-L-Lys-L-Gln-D-Met-L-Glu-L-Glu-NH2 [PEP-35] | 144.3 | increase MBNL1 levels |  |
| Ac-L-Lys-L-Arg-L-Gln-D-Met-L-Glu-L-Glu-NH2 [PEP-36] | 117.6 | increase MBNL1 levels |  |
| H-L-Arg-L-Arg-L-Gln-D-Met-L-Glu-L-Glu-NH2 [PEP-27] | 144.2 | increase MBNL1 levels |  |
